# Tests used:
# Type in all cases: functional
# [1] = system: Mycobacterium tuberculosis; test: Minimum inhibitory concentration tested against Mycobacterium tuberculosis sensitive clinical isolates; Range:1-4 ug/ml
# [2] = system: Mycobacterium intracellulare; test: Minimum inhibitory concentration tested against Mycobacterium intracellular ATCC 13950
# [3] = system: Mycobacterium tuberculosis; test: Minimum inhibitory concentration tested against Mycobacterium tuberculosis H37Rv ATCC 27294
# Mycobacterium avium = test: Minimum inhibitory concentration tested against Mycobacterium avium ATCC 49601
# [4] = system: Mycobacterium tuberculosis; test: Minimum inhibitory concentration tested against Mycobacterium tuberculosis sensitive clinical isolates; Range 0.125-0.25 ug/ml
# [5] = system: Mycobacterium tuberculosis; test: Minimum inhibitory concentration tested against Mycobacterium tuberculosis sensitive clinical isolates
# [6] = system: Mycobacterium tuberculosis; test: Minimum inhibitory concentration tested against Mycobacterium tuberculosis sensitive clinical isolates; Range 8-16 ug/mL
# [7] = system: Mycobacterium tuberculosis; test: Minimum inhibitory concentration tested against Mycobacterium tuberculosis sensitive clinical isolates; Range:1-2 ug/ml
SMILES,MIC [1],MIC [2],MIC [3],MIC (Mycobacterium avium),MIC [4],MIC [5],MIC [6],MIC [7]
O=C1c2ccccc2C(=O)N1CCCCCN1CCN(CC/N=c2/cc3n(-c4ccc(Cl)cc4)c4ccccc4nc-3cc2Nc2ccc(Cl)cc2)CC1,4 µg/mL,8 µg/mL,1 µg/mL,16 µg/mL,,,,
NNC(=O)c1ccncc1 [ISONIAZID],,8 µg/mL,0.25 µg/mL,> 16 µg/mL,0.25 µg/mL,,,
O=C1c2cccc3cccc(c23)C(=O)N1CCCCCN1CCN(CC/N=c2/cc3n(-c4ccc(Cl)cc4)c4ccccc4nc-3cc2Nc2ccc(Cl)cc2)CC1,,> 16 µg/mL,> 16 µg/mL,> 16 µg/mL,,> 16 µg/mL,,
O=C1c2ccccc2C(=O)N1CCCN1CCN(CC/N=c2/cc3n(-c4ccc(Cl)cc4)c4ccccc4nc-3cc2Nc2ccc(Cl)cc2)CC1,,> 16 µg/mL,> 16 µg/mL,> 16 µg/mL,,> 16 µg/mL,,
O=C1c2cccc3cccc(c23)C(=O)N1CCCCCCN1CCN(CC/N=c2/cc3n(-c4ccc(Cl)cc4)c4ccccc4nc-3cc2Nc2ccc(Cl)cc2)CC1,,> 16 µg/mL,16 µg/mL,> 16 µg/mL,,,16 µg/mL,
O=C1c2ccccc2C(=O)N1CCCCN1CCN(CC/N=c2/cc3n(-c4ccc(Cl)cc4)c4ccccc4nc-3cc2Nc2ccc(Cl)cc2)CC1,,> 16 µg/mL,> 16 µg/mL,> 16 µg/mL,,> 16 µg/mL,,
O=C1c2ccccc2C(=O)N1CCCCCCN1CCN(CC/N=c2/cc3n(-c4ccc(Cl)cc4)c4ccccc4nc-3cc2Nc2ccc(Cl)cc2)CC1,,8 µg/mL,1 µg/mL,16 µg/mL,,,,2 µg/mL
O=C1c2cccc3cccc(c23)C(=O)N1CCCCN1CCN(CC/N=c2/cc3n(-c4ccc(Cl)cc4)c4ccccc4nc-3cc2Nc2ccc(Cl)cc2)CC1,,> 16 µg/mL,> 16 µg/mL,> 16 µg/mL,,> 16 µg/mL,,
O=C1c2cccc3cccc(c23)C(=O)N1CCCN1CCN(CC/N=c2/cc3n(-c4ccc(Cl)cc4)c4ccccc4nc-3cc2Nc2ccc(Cl)cc2)CC1,,> 16 µg/mL,> 16 µg/mL,> 16 µg/mL,,> 16 µg/mL,,
